Reference: BindingDB's records for doi:10.7270/Q2TX3CTT (Broad Institute, 2010)
Structures can show the parent of a compound that is named as a salt.

Molecular target: Glycogen synthase kinase-3 beta (Homo sapiens, UniProt P49841)
Assay: concentration-response blocking of human GSK3B – biochemical, luminescence, cell-free homogeneous, retest, dose response (AID 434954)

Sequence of Glycogen synthase kinase-3 beta (P49841 whole entry): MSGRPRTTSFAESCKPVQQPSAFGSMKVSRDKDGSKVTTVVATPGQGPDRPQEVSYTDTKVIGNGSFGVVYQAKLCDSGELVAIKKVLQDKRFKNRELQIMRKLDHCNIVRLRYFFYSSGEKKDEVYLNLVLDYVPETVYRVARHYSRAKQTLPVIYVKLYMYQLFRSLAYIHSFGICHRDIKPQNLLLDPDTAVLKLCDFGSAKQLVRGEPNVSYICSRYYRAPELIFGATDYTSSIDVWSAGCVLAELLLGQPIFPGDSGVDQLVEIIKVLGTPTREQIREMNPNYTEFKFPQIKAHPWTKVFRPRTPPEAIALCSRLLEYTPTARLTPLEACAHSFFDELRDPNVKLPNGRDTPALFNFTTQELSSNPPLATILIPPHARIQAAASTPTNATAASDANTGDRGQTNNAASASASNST

| EC50 | SMILES |
| --- | --- |
| > 300 µM | CC1CCCC(NC(=O)C2CCN(C(=O)Nc3ccccc3)CC2)C1C (stereo unspecified) [N4-(2,3-dimethylcyclohexyl)-N1-phenyl-piperidine-1,4-dicarboxamide] |
| > 300 µM | Cc1ccc(C(=O)/[O+]=N/[CH-]c2ccc(N3CCCCC3)c([N+](=O)[O-])c2)cc1 [[(3-nitro-4-piperidin-1-ylphenyl)methylideneamino] 4-methylbenzoate] |
| > 300 µM | CS(=O)(=O)N(CCc1ccccc1)CC(=O)N1CCN(c2ccccc2F)CC1 |
| > 300 µM | COc1ccc(CN(CC(=O)NCc2ccccc2)C(=O)CCC(=O)Nc2nccs2)cc1 |
| > 300 µM | O=c1oc(-c2cccs2)nc2sc3c(c12)CCCCC3 |
| 2.29 µM | CC(=O)N1CCc2c(sc(NC(=O)CN3C(=O)CCC3=O)c2C(N)=O)C1 [6-acetyl-2-[[2-(2,5-dioxopyrrolidin-1-yl)acetyl]amino]-5,7-dihydro-4H-thieno[2,3-c]pyridine-3-carboxamide] |
| > 300 µM | COc1ccc(C(C)N2CC34C=CC(O3)C(C(=O)O)C4C2=O)cc1 (stereo unspecified) [3-[1-(4-Methoxy-phenyl)-ethyl]-4-oxo-10-oxa-3-aza-tricyclo[5.2.1.0*1,5*]dec-8-ene-6-carboxylic acid] |
| > 300 µM | O=C(Nc1ccccc1)C(=O)Nc1ccccn1 [N-Phenyl-N'-pyridin-2-yl-oxalamide] |
| > 300 µM | CCN1CCN(c2nc(N)c([N+](=O)[O-])c(Nc3cccc(C)c3)n2)CC1 [2-(4-ethylpiperazin-1-yl)-4-N-(3-methylphenyl)-5-nitropyrimidine-4,6-diamine] |

Second part, the compound before the results:

| SMILES | EC50 |
| --- | --- |
| CCCSCCCNC(=O)Cn1nc(CC)n2c(cc3c(OC)cccc32)c1=O | > 300 µM |
| CC1CN(C(=O)CCCN2C(=O)c3ccccc3C2=O)CC(C)O1 (stereo unspecified) [2-[4-(2,6-dimethylmorpholin-4-yl)-4-oxobutyl]isoindole-1,3-dione] | > 300 µM |
| O=C(Nc1cccc(Cl)c1)Nc1ccnc(-c2cccnc2)n1 [SMR000337179] | > 300 µM |
| O=C(Nc1cccnc1)c1sc(Nc2ccccc2)nc1-c1ccccc1 [SMR000261858] | > 300 µM |
| CC(C)(C)C1CCc2onc(C(=O)Nc3ccc4c(c3)OCO4)c2C1 (stereo unspecified) [N-(1,3-benzodioxol-5-yl)-5-tert-butyl-4,5,6,7-tetrahydro-1,2-benzoxazole-3-carboxamide] | > 300 µM |
| COC(=O)CSc1nnc(-c2ccncc2)o1 [methyl 2-[(5-pyridin-4-yl-1,3,4-oxadiazol-2-yl)sulfanyl]ethanoate] | > 300 µM |
| Nc1nc(NCc2ccco2)nc(Nc2cccc(F)c2)c1[N+](=O)[O-] [SMR000436034] | > 300 µM |
| COc1ccc(OC)c(C(=O)c2coc3ccc(O)c(CN(C)C)c23)c1 [(2,5-dimethoxyphenyl)-[4-[(dimethylamino)methyl]-5-oxidanyl-1-benzofuran-3-yl]methanone;hydrochloride] | > 300 µM |
| COc1ccc(N(CN2C(=O)C3CC=CCC3C2=O)C(=O)c2ccco2)cc1 (stereo unspecified) [N-[(1,3-dioxo-3a,4,7,7a-tetrahydroisoindol-2-yl)methyl]-N-(4-methoxyphenyl)-2-furancarboxamide] | > 300 µM |
| COc1ccccc1Nc1nc(NCc2ccco2)nc(N)c1[N+](=O)[O-] [SMR000436038] | > 300 µM |
| COc1ccc2occ(C(=O)c3ccccc3)c2c1 [(5-methoxy-1-benzofuran-3-yl)-phenyl-methanone] | 22.9 µM |
| CC1CCCCC1NC(=O)CN(C)S(=O)(=O)c1cccc2cccnc12 (stereo unspecified) [N-(2-methylcyclohexyl)-2-[methyl(quinolin-8-ylsulfonyl)amino]acetamide] | > 300 µM |
| CCOC(=O)Cc1csc(NC(=O)c2c(O)c3ccccc3n(CCC(C)C)c2=O)n1 [SMR000284490] | > 300 µM |
| c1ccc(CNc2nc(-c3cccnc3)nc3ccccc23)cc1 | > 300 µM |
| Cc1ccc(Nc2nc(NCCCN3CCOCC3)nc(N)c2[N+](=O)[O-])cc1C [SMR000219808] | > 300 µM |
| O=c1cc(-c2ccccc2Cl)oc2c(NS(=O)(=O)c3ccccc3C(F)(F)F)ccc(O)c12 | > 300 µM |
| O=C(OCCCOC(=O)c1cc[n+]([O-])cc1)c1cc[n+]([O-])cc1 | > 300 µM |
